Measurements: patent publication US8686130B2, “Artificial fluorescent bases” (Riken, priority 2009, dated 2014)
Several values for one entry are separate records, joined by “and”; a condition that tells them apart may be missing. Equal entries are not always repeated. Where two headings read alike, the source gives them in different places.

Tests used:
[1] = Fluorescence characteristics of base analog nucleosides; assay type: physicochemical; details: for Fluorescence emitted by excitation at a wavelength of 350 nm or more: excitation 350 nm or more; for Absorption maximum / Fluorescence intensity (ε × φ) / Fluorescence wavelength / Molar absoption coefficient ε / Stokes shift / Excitation wavelength: deoxyribonucleoside derivative; for Quantum yield (φ): quinine sulfate as a standard
Protocol: Reagents and solvents were purchased from typical suppliers and were used without further purification. ^1H-NMR (300 MHz, 270 MHz) and ^31P-NMR (121 MHz) spectra were recorded on a BRUKER AV300 or JEOL nuclear magnetic resonance spectrometer. Synthesized nucleoside derivatives and nucleoside 5′-triphosphate were purified with a Gilson HPLC system using a fractionation column (Waters Microbond Sphere, C18, 19 mm×150 mm, flow rate: 10 mL/min) and a fractionation column (PEGASIL C8, Senshu Scientific Co., Ltd., 10 mm×150 mm, flow rate: 6 mL/min), respectively. Electrospray-ionization mass spectra (ESI-MS) were recorded on a Waters ZMD 4000 mass system equipped with a Waters 2690 LC system. Fluorescence spectra were measured with a JASCO FP6500 fluorescence spectrometer, and fluorescence quantum yields were determined using quinine sulfate as a standard.
Fluorescence characteristics of nucleosides including an unnatural base, ss, sss, Dss, Dsss, Dsas, Dsav, or Dvas, were evaluated. For comparison, fluorescence characteristics of nucleosides including known unnatural bases, 2-aminopurine, s (2-amino-6-(2-thienyl)purin-9-yl group), v (2-amino-6-(2-thiazolyl)purin-9-yl group), and Ds (7-(2-thienyl)imidazo[4,5-b]pyridin-3-yl group) were also evaluated.

[2] = cited from earlier work
T7 RNA polymerase = T7 RNA polymerase (Escherichia phage T7, UniProt P00573); details: 0.05 to 0.1 mM substrate, 1 mM natural NTPs, 37° C., 3 hr
Protocol: Templates for transcription by the T7 polymerase were prepared by heating chemically synthesized two DNA strands (10 μM coding strand (SEQ ID NO: 4) of 35-mer and non-coding strand (SEQ ID NO: 5) of 21-mer) at 95° C. in a 10 mM Tris-HCl buffer (pH 7.6) containing 10 mM NaCl and then slowly cooled to 4° C. for annealing. The transcription by the T7 polymerase was performed by using 2 μM of the template and 50 units of a T7 RNA polymerase (Takara Shuzo Co., Ltd., Kyoto) in a 40 mM Tris-HCl buffer (pH 8.0, 20 μL) containing 24 mM MgCl2, 2 mM spermidine, 5 mM DTT, and 0.01% Triton X-100 in the presence of 1 mM natural NTPs, 0.05 to 0.1 mM ssTP or DssTP (ribonucleoside 5′-triphosphate of ss or Dss). After the reaction at 37° C. for 3 hr, the reaction was terminated by addition of a dye solution (20 μL) containing 10 M urea and 0.05% BPB. […] The transcription product was protected by placing the gel on a TLC containing a fluorescent indicator, irradiating the gel with UV of 254 nm, and photographing the image with a Polaroid camera utilizing the phenomenon that nucleic acid absorbs the UV and thereby the band of the transcription product is detected as an image. The transcript including the unnatural fluorescent base ss or Dss was detected with a bio-imaging analyzer, LAS 4000 (Fujifilm Corporation) utilizing epi-UV LED.

Klenow fragment (exo+) = Klenow fragment (exo+) (Escherichia coli, UniProt P00582); details: 0.5 μM dDssTP with 10 μM natural base substrate, 37° C.
Protocol: Template strand DNA (SEQ ID NO: 1,35-mer, 400 nM) dissolved in 2× reaction buffer (20 mM tris-HCl, pH 7.5, 14 mM MgCl2, 0.2 mM DTT) and a primer labeled with ^32P at the 5′-end (SEQ ID NO: 2,23-mer, 400 nM) were heated at 95° C. for 3 min and then slowly cooled for annealing to form a double strand. To each 5 μL of the resulting double-stranded DNA solution, 2.5 μL of a 4×dNTP solution mixture (40 μM dTTP, 40 μM dCTP, 0 to 40 μM dDssTP) and 2.5 μL (1 unit) of Klenow fragment (Takara Shuzo Co., Ltd.) diluted with water were added to start the enzyme reaction at 37° C. After incubation at 37° C., the reaction was terminated by addition of a TBE solution containing 10 μL of 10 M urea and heating at 75° C. for 3 min. A part of the reaction solution was subjected to electrophoresis with 15% polyacrylamide-7 M urea gel and analyzed with a bio-imaging analyzer (FLA7000, Fujifilm Corporation).

[3] = test system: mRNA of firefly luciferase; assay: Suppression of firefly luciferase reporter gene expression by shRNA in HeLa cells (dual luciferase assay); assay type: cell-based; details: different shRNA concentrations, read-out: IC50 for suppressing expression of firefly luciferase gene
Protocol: In this Example, various shRNAs prepared by T7 transcription and gel purification were introduced into HeLa cells by lipofection together with a plasmid encoding a target reporter gene (firefly luciferase) and a control plasmid endocing a Renilla luciferase gene. Suppression of the target gene expression was investigated based on the luminescence of luciferase. […]
HeLa cells were seeded at 1.5×10^4 cells (100 μL of culture medium)/well in a 96-well plate and were cultured in an MEM medium containing 10% fetal bovine serum but not containing antibiotics for 24 hr. […] After culturing for 22 hr, the intensity of luminescence emitted from each of the two types of luciferase proteins was determined.
The effect of suppressing expression of the firefly luciferase protein, which is the target of shRNA, was analyzed by the intensities of luminescence emitted from the firefly luciferase and Renilla luciferase using dual luciferase reporter assay reagent (Promega Corporation). […] The resulting solution was mixed with 100 μL of LAR II reagent, and the luminescence of the firefly luciferase was detected (exposure time: 120 sec) with LAS 4000 (Fujifilm Corporation), then, 100 μL of Stop & Glo reagent was added thereto, and the luminescence of the Renilla luciferase was detected (exposure time: 200 sec). […]

[4] = from Ward et al., J. Biol. Chem. 1969

T7 RNA polymerase, sequence (P00573 whole entry, the tested form may be a part): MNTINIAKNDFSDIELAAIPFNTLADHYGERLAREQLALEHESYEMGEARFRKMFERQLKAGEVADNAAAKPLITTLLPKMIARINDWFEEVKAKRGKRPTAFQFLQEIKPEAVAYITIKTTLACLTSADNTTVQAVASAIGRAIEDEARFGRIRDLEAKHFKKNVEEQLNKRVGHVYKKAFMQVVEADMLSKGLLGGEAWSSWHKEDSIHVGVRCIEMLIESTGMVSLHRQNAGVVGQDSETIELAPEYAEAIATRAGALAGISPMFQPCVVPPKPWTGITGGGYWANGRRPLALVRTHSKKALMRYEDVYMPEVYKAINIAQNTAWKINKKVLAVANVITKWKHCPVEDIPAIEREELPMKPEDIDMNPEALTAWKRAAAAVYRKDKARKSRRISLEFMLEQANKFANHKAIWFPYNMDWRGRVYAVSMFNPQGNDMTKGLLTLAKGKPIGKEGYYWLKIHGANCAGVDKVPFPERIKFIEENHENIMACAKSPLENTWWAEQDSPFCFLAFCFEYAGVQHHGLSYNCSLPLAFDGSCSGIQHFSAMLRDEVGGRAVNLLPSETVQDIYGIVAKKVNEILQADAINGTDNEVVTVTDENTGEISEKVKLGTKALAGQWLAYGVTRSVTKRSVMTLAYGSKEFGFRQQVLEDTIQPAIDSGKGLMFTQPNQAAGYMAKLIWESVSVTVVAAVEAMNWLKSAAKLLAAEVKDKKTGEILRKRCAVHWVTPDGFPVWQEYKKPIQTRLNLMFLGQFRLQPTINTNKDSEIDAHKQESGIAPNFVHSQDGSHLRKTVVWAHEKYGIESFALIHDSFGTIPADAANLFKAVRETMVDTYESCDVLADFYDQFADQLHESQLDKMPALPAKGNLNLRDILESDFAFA
Klenow fragment (exo+), sequence (P00582 324-928): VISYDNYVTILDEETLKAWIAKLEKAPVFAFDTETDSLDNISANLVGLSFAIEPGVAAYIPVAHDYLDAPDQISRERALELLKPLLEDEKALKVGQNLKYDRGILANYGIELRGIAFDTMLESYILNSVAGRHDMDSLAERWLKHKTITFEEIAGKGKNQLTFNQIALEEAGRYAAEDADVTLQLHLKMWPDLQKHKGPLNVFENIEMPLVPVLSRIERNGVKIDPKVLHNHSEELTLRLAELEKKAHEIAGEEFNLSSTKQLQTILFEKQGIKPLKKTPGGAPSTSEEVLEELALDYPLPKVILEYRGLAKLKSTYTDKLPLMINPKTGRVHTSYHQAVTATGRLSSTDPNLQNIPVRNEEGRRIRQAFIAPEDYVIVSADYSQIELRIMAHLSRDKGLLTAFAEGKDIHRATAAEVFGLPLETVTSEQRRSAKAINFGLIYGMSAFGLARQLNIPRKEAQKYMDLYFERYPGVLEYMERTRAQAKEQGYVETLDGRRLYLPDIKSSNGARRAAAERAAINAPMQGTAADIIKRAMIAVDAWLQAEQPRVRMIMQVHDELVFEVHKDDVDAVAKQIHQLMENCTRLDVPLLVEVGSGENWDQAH

| Absorption maximum [1] | Fluorescence intensity (ε × φ) [1] | Fluorescence wavelength [1] | Molar absoption coefficient ε [1] | Stokes shift [1] | Quantum yield (φ) [1] | Excitation wavelength [1] | Compound | also measured |
| --- | --- | --- | --- | --- | --- | --- | --- | --- |
| 313 nm | 4180 | 366 nm | 22000 M⁻¹ cm⁻¹ | 54 nm | 0.19 |  | OC[C@H]1O[C@@H](n2cnc3c(-c4cccs4)ccnc32)C[C@@H]1O [dDs, reference compound] | Fluorescence emitted by excitation at a wavelength of 350 nm or more [1]: does not emit light |
| 365 nm | 2795 | 451 nm | 21500 M⁻¹ cm⁻¹ | 84 nm | 0.13 | 367 nm | OC[C@H]1O[C@@H](n2ccc3c(-c4ccc(-c5cccs5)s4)ccnc32)C[C@@H]1O [dDsas, 1-[2-deoxy-β-D-ribofuranosyl]-4-(2,2′-bithien-5-yl)-pyrrolo[2,3-b]pyridine] |  |
| 370 nm | 10400 | 442 nm | 32500 M⁻¹ cm⁻¹ | 71 nm | 0.32 | 371 nm | OC[C@H]1O[C@@H](n2cnc3c(-c4ccc(-c5cccs5)s4)ccnc32)C[C@@H]1O [dDss, 7-(2,2′-bithien-5-yl)-3-(2-deoxy-β-D-ribofuranosyl)imidazo[4,5-b]pyridine] |  |
| 403 nm | 3132 | 489 nm | 34800 M⁻¹ cm⁻¹ | 82 nm | 0.09 | 407 nm | OC[C@H]1O[C@@H](n2cnc3c(-c4ccc(-c5ccc(-c6cccs6)s5)s4)ccnc32)C[C@@H]1O [dDsss, 7-(2,2′,5′,2″-terthien-5-yl)-3-(2-deoxy-β-D-ribofuranosyl)imidazo[4,5-b]pyridine] |  |
| 414 nm | 4928 | 508 nm | 44800 M⁻¹ cm⁻¹ | 89 nm | 0.11 | 419 nm | Nc1nc(-c2ccc(-c3ccc(-c4cccs4)s3)s2)c2ncn([C@H]3C[C@H](O)[C@@H](CO)O3)c2n1 [dsss, 2-amino-6-(2,2′,5′,2″-terthien-5-yl)-9-(2-deoxy-β-D-ribofuranosyl)purine] |  |

More lines, now with the values behind:

| Compound | Absorption maximum [1] | Fluorescence intensity (ε × φ) [1] | Fluorescence wavelength [1] | Molar absoption coefficient ε [1] | Stokes shift [1] | Quantum yield (φ) [1] | Excitation wavelength [1] | also measured |
| --- | --- | --- | --- | --- | --- | --- | --- | --- |
| Nc1ncc2[nH]cnc2n1 [2-aminopurine] |  |  |  |  |  |  |  | Fluorescence emitted by excitation at a wavelength of 350 nm or more [1]: considerably low; Absorption maximum [2, 4]: 304 nm; Excitation wavelength [2, 4]: about 300 nm; Fluorescence intensity (ε × φ) [2, 4]: 4828; Fluorescence wavelength [2, 4]: 370 nm; Molar absoption coefficient ε [2, 4]: 7100 M⁻¹ cm⁻¹; Quantum yield (φ) [2, 4]: 0.68; Stokes shift [2, 4]: 67 nm; Excitation wavelength ([2]; from Ward et al., J. Biol. Chem. 1969, listed as 2-aminoprine): 303 nm |
| O=P(O)(O)OP(=O)(O)OP(=O)(O)OC[C@H]1O[C@@H](n2cnc3c(-c4ccc(-c5cccs5)s4)ccnc32)[C@H](O)[C@@H]1O [DssTP, 7-(2,2′-bithien-5-yl)-3-(β-D-ribofuranosyl)imidazo[4,5-b]pyridine 5′-triphosphate] |  |  |  |  |  |  |  | Incorporation into RNA opposite Pa in template DNA (T7 RNA polymerase): selectively incorporated into RNA depending on Pa |
| OC[C@H]1O[C@@H](n2ccc3c(-c4ccc(-c5nccs5)s4)ccnc32)C[C@@H]1O [dDsav, 1-[2-deoxy-β-D-ribofuranosyl]-4-[2-(2-thiazolyl)thien-5-yl]pyrrolo[2,3-b]pyridine] | 365 nm | 2795 | 445 nm | 21500 M⁻¹ cm⁻¹ | 77 nm | 0.13 | 368 nm |  |
| O=P(O)(O)OP(=O)(O)OP(=O)(O)OC[C@H]1O[C@@H](n2cnc3c(-c4ccc(-c5cccs5)s4)ccnc32)C[C@@H]1O [dDssTP, 7-(2,2′-bithien-5-yl)-3-(2-deoxy-β-D-ribofuranosyl)imidazo[4,5-b]pyridine 5′-triphosphate] |  |  |  |  |  |  |  | Incorporation into DNA opposite Pa in template DNA (Klenow fragment (exo+)): selectively incorporated into a complementary DNA strand |
| OC[C@H]1O[C@@H](n2ccc3c(-c4ncc(-c5cccs5)s4)ccnc32)C[C@@H]1O [dDvas, 1-[2-deoxy-β-D-ribofuranosyl]-4-[5-(2-thienyl)thiazol-2-yl]pyrrolo[2,3-b]pyridine] | 377 nm | 3780 | 449 nm | 27000 M⁻¹ cm⁻¹ | 71 nm | 0.14 | 378 nm |  |
| c1csc(-c2ccnc3nc[nH]c23)c1 [ds, 7-(2-thienyl)-imidazo[4,5-b]pyridine, reference compound] | 353 nm | 2576 | 429 nm | 11200 M⁻¹ cm⁻¹ | 78 nm | 0.23 | 350 nm and 351 nm | Fluorescence by excitation at a wavelength of 350 nm or more ([2]; background art): substantially invisible to the naked eye |
| Nc1nc(-c2nccs2)c2ncn([C@H]3C[C@H](O)[C@@H](CO)O3)c2n1 [dv, reference compound] | 363 nm | 3444 | 461 nm | 8400 M⁻¹ cm⁻¹ | 104 nm | 0.41 | 363 nm and 357 nm | Stability of nucleoside derivative under basic conditions: low stability |
| Nc1nc(-c2cccs2)c2[nH]cnc2n1 [s, 2-amino-6-thienylpurine] |  |  |  |  |  |  |  | Fluorescence wavelength ([2]; background art): 435 nm; Maximum excitation wavelength ([2]; background art): 348 nm |
| Nc1nc(-c2ccc(-c3cccs3)s2)c2ncn([C@@H]3O[C@H](COP(=O)(O)OP(=O)(O)OP(=O)(O)O)[C@@H](O)[C@H]3O)c2n1 [ssTP] |  |  |  |  |  |  |  | Incorporation into RNA opposite Pa in template DNA (T7 RNA polymerase): selectively incorporated into RNA depending on Pa |
| shRNAF1 WT: 52-mer short hairpin RNA (SEQ ID NO: 10) targeting mRNA of firefly luciferase, A36 unsubstituted (GGAGCCUUCAGGAUUACAAGAUUCAAGAGUCUUGUAAUCCUGAAGGCUCCUU; short hairpin RNA, synthesis route not given here, further chemistry not given here) |  |  |  |  |  |  |  | IC50 [3]: ~0.02 nM |
